Experiments:
Cbl-b (aa36-427) = molecular target: T1, Cbl-b (aa36-427) (Homo sapiens, UniProt Q13191); assay: Co-expressed Cbl-b with BirA biochemical assay (CBLB/E2-Ub binding, HTRF); settings: 0.6 nM Cbl-b co-expressed with BirA, HTRF; read-out: co-express CBLB/E2-Ub-binding assay IC50
T1 construct: Cbl-b (aa36-427, in-house); made in house
From the text: (§1) The assay in the absence of a Cbl-b/Cbl inhibitor, where phosphorylation of Cbl-b/Cbl by the Src kinase allows UbcH5B-Ub to bind to Cbl-b/Cbl and brings the Bodipy-Fluorescein tagged ubiquitin in proximity to the streptavidin-terbium bound to the N-terminal biotinylated Avi-tagged Cbl-b/Cbl. […] The lack of a FRET signal indicates Cbl-b/Cbl is inhibited by the Cbl-b/Cbl inhibitor.

Cbl (aa49-434) = molecular target: T2, Cbl (aa49-434) (Homo sapiens, UniProt P22681); assay: Co-expressed Cbl with BirA biochemical assay (CBL/E2-Ub binding, HTRF); settings: 0.6 nM Cbl co-expressed with BirA, read-out: co-express CBL/E2-Ub-binding assay IC50
T2 construct: Cbl (aa49-434, in-house); made in house
T2 sequence (P22681 49-434): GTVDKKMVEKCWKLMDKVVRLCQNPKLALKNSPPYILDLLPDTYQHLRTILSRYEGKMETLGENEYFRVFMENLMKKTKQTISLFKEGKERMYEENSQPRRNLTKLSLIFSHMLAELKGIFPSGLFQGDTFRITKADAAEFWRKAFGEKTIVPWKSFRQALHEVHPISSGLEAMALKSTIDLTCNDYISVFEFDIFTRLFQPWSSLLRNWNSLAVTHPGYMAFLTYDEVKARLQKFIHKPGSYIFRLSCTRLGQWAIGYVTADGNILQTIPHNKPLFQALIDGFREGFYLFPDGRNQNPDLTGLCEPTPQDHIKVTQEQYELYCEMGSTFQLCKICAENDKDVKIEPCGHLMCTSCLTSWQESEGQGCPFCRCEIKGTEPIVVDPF
From the text: as §1

T1 sequence (Q13191 36-427): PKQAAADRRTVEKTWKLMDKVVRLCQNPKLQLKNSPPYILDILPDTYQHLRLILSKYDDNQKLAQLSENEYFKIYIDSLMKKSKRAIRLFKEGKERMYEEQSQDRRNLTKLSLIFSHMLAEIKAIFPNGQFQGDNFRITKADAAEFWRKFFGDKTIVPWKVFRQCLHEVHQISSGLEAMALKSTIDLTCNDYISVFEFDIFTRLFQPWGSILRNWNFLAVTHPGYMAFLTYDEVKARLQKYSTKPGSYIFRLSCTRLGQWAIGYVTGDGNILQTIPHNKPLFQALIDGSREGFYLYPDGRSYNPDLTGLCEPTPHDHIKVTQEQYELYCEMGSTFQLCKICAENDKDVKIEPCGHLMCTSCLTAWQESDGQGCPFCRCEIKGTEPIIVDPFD

Row | IC50 (Cbl-b (aa36-427)) [nM] | IC50 (Cbl (aa49-434)) [nM] | Molecule
1 | 0.9 | 17 | Cn1cnnc1[C@]1(c2cccc(NC(=O)c3cc(CNC4(C)CC4)c4[nH]cc(Cl)c4n3)c2)C[C@H](CC#N)C1 [Compound B24, 3-chloro-N-(3-((1s, 3s)-3-(cyanomethyl)-1-(4-methyl-4H-1,2,4-triazol-3-yl)cyclobutyl)phenyl)-7-(((1-methylcyclopropyl)amino)methyl)-1H-pyrrolo[3,2-b]pyridine-5-carboxamide]
2 | 1.1 | 1.5 | C[C@H](NCc1cc(C(=O)Nc2cccc([C@]3(c4nncn4C)C[C@@H](CC#N)C3)c2)nc2c1CCC2(C)C)C1CCC1 [Compound C38, N-(3-((1s,3R)-3-(cyanomethyl)-1-(4-methyl-4H-1,2,4-triazol-3-yl)cyclobutyl)phenyl)-4-((((S)-1-cyclobutylethyl)amino)methyl)-7,7-dimethyl-6,7-dihydro-5H-cyclopenta[b]pyridine-2-carboxamide]
3 | 4 | 19.5 | Cn1cnnc1[C@]1(c2cccc(NC(=O)c3cc(CNCC4CCC(F)(F)CC4)c4[nH]ccc4n3)c2)C[C@H](CC#N)C1 [Compound B22, N-(3-((1s, 3s)-3-(cyanomethyl)-1-(4-methyl-4H-1,2,4-triazol-3-yl)cyclobutyl)phenyl)-7-((((4,4-difluorocyclohexyl)methyl)amino)methyl)-1H-pyrrolo[3,2-b]pyridine-5-carboxamide]
4 | 1 | 3.5 | C[C@H](NCc1cc(C(=O)Nc2cccc([C@]3(c4nncn4C)C[C@@H](CC#N)C3)c2)nc2c1NCC2(C)C)C1CC1 [Compound C27, 7-({[(1S)-1-cyclopropylethyl]amino}methyl)-3,3-dimethyl-N-{3-[(1s, 3s)-3-(cyanomethyl)-1-(4-methyl-1,2,4-triazol-3-yl)cyclobutyl]phenyl}-1H,2H-pyrrolo[3,2-b]pyridine-5-carboxamide]
5 | 13.6 | 89.9 | C[C@H]1CCCN(Cc2cc(C(=O)Nc3cccc([C@]4(c5nncn5C)C[C@@H](CC#N)C4)c3)nn3cccc23)C1 [Compound B14, 4-{[(3S)-3-methylpiperidin-1-yl]methyl}-N-{3-[(1s, 3s)-3-(cyanomethyl)-1-(4-methyl-1,2,4-triazol-3-yl)cyclobutyl]phenyl}pyrrolo[1,2-b]pyridazine-2-carboxamide]
6 | 1.5 | 9.3 | Cn1cnnc1[C@]1(c2cncc(NC(=O)c3cc(CNC4(C)CCC4)c4[nH]ccc4n3)c2)C[C@H](C)C1 [Compound B50, N-(5-((1s, 3s)-3-methyl-1-(4-methyl-4H-1,2,4-triazol-3-yl)cyclobutyl)pyridin-3-yl)-7-(((1-methylcyclobutyl)amino)methyl)-1H-pyrrolo[3,2-b]pyridine-5-carboxamide]
7 | 3.4 | 26 | CCn1cnnc1[C@]1(c2cccc(NC(=O)c3cc(CNC4(C)CC4)cn4ccnc34)c2)C[C@H](C)C1 [Compound A85, N-(3-((1s, 3s)-1-(4-ethyl-4H-1,2,4-triazol-3-yl)-3-methylcyclobutyl)phenyl)-6-(((1-methylcyclopropyl)amino)methyl)imidazo[1,2-a]pyridine-8-carboxamide]
8 | 6.6 | 46.2 | C[C@H]1CCCN(Cc2cc(C(=O)Nc3cccc([C@]4(c5nncn5C)C[C@@H](CC#N)C4)c3)n3nccc3c2)C1 [Compound A11, 5-{[(3S)-3-methylpiperidin-1-yl]methyl}-N-{3-[(1s, 3s)-3-(cyanomethyl)-1-(4-methyl-1,2,4-triazol-3-yl)cyclobutyl]phenyl}pyrazolo[1,5-a]pyridine-7-carboxamide]
9 | 1.6 | 5.9 | Cc1cnc2c(C(=O)Nc3cccc([C@]4(c5nncn5C)C[C@@H](C)C4)c3)cc(CN3CC[C@H](F)[C@H](C)C3)cn12 [Compound A46, 6-(((3R,4S)-4-fluoro-3-methylpiperidin-1-yl)methyl)-3-methyl-N-(3-((1s,3S)-3-methyl-1-(4-methyl-4H-1,2,4-triazol-3-yl)cyclobutyl)phenyl)imidazo[1,2-a]pyridine-8-carboxamide]
10 | 0.9 | 3.4 | Cn1cnnc1[C@]1(c2cccc(NC(=O)c3cc(CNCC4CCC4)c4c(n3)C(C)(C)CC4)c2)C[C@H](C)C1 [Compound C57, 4-(((cyclobutylmethyl)amino)methyl)-7,7-dimethyl-N-(3-((1s, 3s)-3-methyl-1-(4-methyl-4H-1,2,4-triazol-3-yl)cyclobutyl)phenyl)-6,7-dihydro-5H-cyclopenta[b]pyridine-2-carboxamide]
11 | 1.4 | 7 | Cc1cnc2c(C(=O)Nc3cccc([C@]4(c5nncn5C)C[C@@H](CC#N)C4)c3)cc(CN3CC[C@H](F)[C@H](C)C3)cn12 [Compound A47, N-(3-((1s,3S)-3-(cyanomethyl)-1-(4-methyl-4H-1,2,4-triazol-3-yl)cyclobutyl)phenyl)-6-(((3R,4S)-4-fluoro-3-methylpiperidin-1-yl)methyl)-3-methylimidazo[1,2-a]pyridine-8-carboxamide]
12 | 1.4 | 3.3 | Cn1cnnc1[C@]1(c2cccc(NC(=O)c3cc(CNCC4CCC4)c4c(n3)C(C)(C)CN4)c2)C[C@H](CC#N)C1 [Compound C30, N-(3-((1s, 3s)-3-(cyanomethyl)-1-(4-methyl-4H-1,2,4-triazol-3-yl)cyclobutyl)phenyl)-7-(((cyclobutylmethyl)amino)methyl)-3,3-dimethyl-2,3-dihydro-1H-pyrrolo[3,2-b]pyridine-5-carboxamide]
13 | 1.2 | 8.4 | Cn1cnnc1[C@]1(c2cccc(NC(=O)c3cc(CNC4(C)CCC4)c4[nH]ccc4n3)c2)C[C@H](CC#N)C1 [Compound B27, N-(3-((1s, 3s)-3-(cyanomethyl)-1-(4-methyl-4H-1,2,4-triazol-3-yl)cyclobutyl)phenyl)-7-(((1-methylcyclobutyl)amino)methyl)-1H-pyrrolo[3,2-b]pyridine-5-carboxamide]
14 | 1.8 | 17.7 | Cn1cnnc1[C@]1(c2cccc(NC(=O)c3cc(CNC4(C)CCC4)c4c(n3)C(C)(C)CN4)c2)C[C@H](CC#N)C1 [Compound C21, N-(3-((1s, 3s)-3-(cyanomethyl)-1-(4-methyl-4H-1,2,4-triazol-3-yl)cyclobutyl)phenyl)-3,3-dimethyl-7-(((1-methylcyclobutyl)amino)methyl)-2,3-dihydro-1H-pyrrolo[3,2-b]pyridine-5-carboxamido]
15 | 3.7 | 15.8 | CC(C)CNCc1cc(C(=O)Nc2cncc([C@]3(c4nncn4C)C[C@@H](C)C3)c2)nc2c1CCC2(F)F [Compound C53, 7,7-difluoro-4-{[(2-methylpropyl)amino]methyl}-N-{5-[(1r, 3s)-3-methyl-1-(4-methyl-1,2,4-triazol-3-yl)cyclobutyl]pyridin-3-yl}-5H,6H-cyclopenta[b]pyridine-2-carboxamide]
16 | 10.3 | 77.7 | C[C@@H]1CN(Cc2cc(C(=O)Nc3cccc([C@]4(c5nncn5C)C[C@@H](CC#N)C4)c3)nc3cc[nH]c23)C[C@H](C)C1(F)F [Compound B19, N-(3-((1s,3S)-3-(cyanomethyl)-1-(4-methyl-4H-1,2,4-triazol-3-yl)cyclobutyl)phenyl)-7-(((3R,5S)-4,4-difluoro-3,5-dimethylpiperidin-1-yl)methyl)-1H-pyrrolo[3,2-b]pyridine-5-carboxamide]
17 | 1.7 | 8.2 | C[C@H](NCc1cc(C(=O)Nc2cccc([C@]3(c4nncn4C)C[C@@H](C)C3)c2)c2ncc(F)n2c1)C1CC1 [Compound A19, 6-((((S)-1-cyclopropylethyl)amino)methyl)-3-fluoro-N-(3-((1s,3R)-3-methyl-1-(4-methyl-4H-1,2,4-triazol-3-yl)cyclobutyl)phenyl)imidazo[1,2-a]pyridine-8-carboxamide]
18 | 1.3 | 5.4 | Cn1cnnc1[C@]1(c2cccc(NC(=O)c3cc(CNCC4CCCC4)c4c(n3)C(C)(C)CN4)c2)C[C@H](C)C1 [Compound C45, 7-{[(cyclopentylmethyl)amino]methyl}-3,3-dimethyl-N-{3-[(1r, 3s)-3-methyl-1-(4-methyl-1,2,4-triazol-3-yl)cyclobutyl]phenyl}-1H,2H-pyrrolo[3,2-b]pyridine-5-carboxamide]
19 | 1.5 | 1.1 | C[C@H]1CCCN(Cc2cc(C(=O)Nc3cccc([C@]4(Cc5nncn5C)C[C@@H](C#N)C4)c3)nc3c2NCC32CC2)C1 [Compound C17, N-(3-((1r,3S)-3-cyano-1-((4-methyl-4H-1,2,4-triazol-3-yl)methyl)cyclobutyl)phenyl)-7′-(((S)-3-methylpiperidin-1-yl)methyl)-1′,2′-dihydrospiro[cyclopropane-1,3′-pyrrolo[3,2-b]pyridine]-5′-carboxamide]

Row | Molecule | IC50 (Cbl-b (aa36-427)) [nM] | IC50 (Cbl (aa49-434)) [nM]
20 | N-(3-((1s,3R)-3-methyl-1-(4-methyl-4H-1,2,4-triazol-3-yl)cyclobutyl)phenyl)-7′-(((S)-3-methylpiperidin-1-yl)methyl)-1′,2′-dihydrospiro[cyclopropane-1,3′-pyrrolo[3,2-b]pyridine]-5′-carboxamide [Compound C51] | 1.5 | 4.9
